Series [1] deals with T1, hPEPT 1 (Homo sapiens, UniProt P46059).
T1 construct: expressed in transfected cells; mock = HeLa-pcDNA 3
T1 sequence (P46059 1-708): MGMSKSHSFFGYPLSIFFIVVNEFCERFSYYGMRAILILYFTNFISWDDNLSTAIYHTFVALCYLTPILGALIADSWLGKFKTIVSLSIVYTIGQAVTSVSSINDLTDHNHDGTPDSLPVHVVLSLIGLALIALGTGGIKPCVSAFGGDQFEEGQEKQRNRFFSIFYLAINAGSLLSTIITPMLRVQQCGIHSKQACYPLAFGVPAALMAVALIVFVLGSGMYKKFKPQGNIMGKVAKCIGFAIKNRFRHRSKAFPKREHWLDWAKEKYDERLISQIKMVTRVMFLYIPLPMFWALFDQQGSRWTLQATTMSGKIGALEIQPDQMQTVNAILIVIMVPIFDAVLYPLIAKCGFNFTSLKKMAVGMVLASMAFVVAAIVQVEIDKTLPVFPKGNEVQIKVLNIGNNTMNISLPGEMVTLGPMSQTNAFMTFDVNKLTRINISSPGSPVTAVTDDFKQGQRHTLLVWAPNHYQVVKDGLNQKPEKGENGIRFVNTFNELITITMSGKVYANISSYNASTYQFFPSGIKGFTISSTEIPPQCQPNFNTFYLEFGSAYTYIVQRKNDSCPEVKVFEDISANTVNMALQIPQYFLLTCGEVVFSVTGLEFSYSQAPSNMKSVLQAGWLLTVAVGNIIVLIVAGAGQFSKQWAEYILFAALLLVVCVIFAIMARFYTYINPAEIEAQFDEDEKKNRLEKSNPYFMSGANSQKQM
The series can be described thus: Inhibitory effect on [^3H] Gly-Sar uptake by HeLa-hPEPT 1 cells. The format is cell-based. Conditions: for [^3H] Gly-Sar uptake % of control: HeLa-hPEPT 1, pH 6.0, 2 min. As to the method:
In order to examine the recognition property of VK-PRX and its component, VK-α-CD, both obtained in Example 4, to PEPT 1, the inihibitory effect to the uptake of [^3H] Gly-Sar by using HeLa cells stably expressing hPEPT 1 (HeLa-hPEPT 1) was examined. HeLa-hPEPT 1 cells or HeLa-pcDNA (Mock) cells prepared by the method described previously (Int. J. Cancer. 88, 274-80, 2000) were placed in a multidish (Nunc) at 10^6 cells/well and cultured in an incubator (Hirasawa) at 37° C. and 5% CO2 for four days. As a broth, DMEM (Dulbecco's modified Eagle's medium; Gibco Laboratories) containing 10% FCS (Gibco Laboratories), 2 mM L-glutamine, and 1 mg/ml G418 was used. After culture, the broth was aspirated and each cell was washed three times with 1 ml of Hanks' balanced salt solution (HBSS; 0.952 mM CaCl2, 5.36 mM KCl, 0.441 mM KH2PO4, 0.812 mM MgSO4, 136.7 mM NaCl, 0.385 mM Na2HPO4, 25 mM D-glucose, 10 mM MES: pH 6.0) at 37° C., then preincubated for five minutes. Subsequently, 250 μl of HBSS containing each inhibitor with the concentration shown in FIG. 4 and Table 8, and [^3H(G)] Gly-Sar (476 nM) was added and an uptake reaction was initiated at 37° C. The inhibitors, VK-PRX (No. 1˜6), were prepared such that the highest concentration of dissolved VK-PRX would be 500 μM or lower, and were filtrated through a filter, and then used for the uptake reaction. At the beginning of the reaction, the reaction solution was taken from each dish and placed into […]. Then, 4 ml of liquid scintillation cocktail (Clear-sol I, Nacalai tesque) was added to the solution, and radioactivity in the reaction solution was measured by a liquid scintillation counter (LSC-5100, Aloka Co. Ltd.). Two minutes after the beginning of the reaction, the reaction solution in each dish was removed by aspiration, and the reaction was stopped by washing the cells three times with 1 ml of ice-cooled HBSS (HEPES: pH 7.4). Subsequently, 250 μl of 5 N NaOH was added to each dish to solubilize the cells (for two hours or longer), and 250 μl of 5 N HCl was added for neutralization, then the whole amount was poured into mini vial, and 4 ml of liquid scintillation cocktail (Clear-sol I, Nacalai tesque) was added, and radioactivity taken in the cells was measured.
Further, in order to measure the amount of cellular proteins after the culture mentioned above, the cultured cells were solubilized, Bio-Rad Protein Assay reagent (Bio-Rad Co.) was added, and the absorbance at 595 nm was measured. As a standard, BSA (bovine serum albumin) was used. Based on the results, the uptake amount of [^3H] Gly-Sar into the cells [cell/medium ratio (μl/mg·protein)] was calculated according to the formula (3). The value of the control in FIG. 4 is the result of the uptake reaction conducted in the absence of the inhibitor. […] It has been shown that the uptake of [^3H]

Series [2] deals with T2, PEPT 1 (Rattus norvegicus, UniProt P51574).
T2 sequence (P51574 1-710): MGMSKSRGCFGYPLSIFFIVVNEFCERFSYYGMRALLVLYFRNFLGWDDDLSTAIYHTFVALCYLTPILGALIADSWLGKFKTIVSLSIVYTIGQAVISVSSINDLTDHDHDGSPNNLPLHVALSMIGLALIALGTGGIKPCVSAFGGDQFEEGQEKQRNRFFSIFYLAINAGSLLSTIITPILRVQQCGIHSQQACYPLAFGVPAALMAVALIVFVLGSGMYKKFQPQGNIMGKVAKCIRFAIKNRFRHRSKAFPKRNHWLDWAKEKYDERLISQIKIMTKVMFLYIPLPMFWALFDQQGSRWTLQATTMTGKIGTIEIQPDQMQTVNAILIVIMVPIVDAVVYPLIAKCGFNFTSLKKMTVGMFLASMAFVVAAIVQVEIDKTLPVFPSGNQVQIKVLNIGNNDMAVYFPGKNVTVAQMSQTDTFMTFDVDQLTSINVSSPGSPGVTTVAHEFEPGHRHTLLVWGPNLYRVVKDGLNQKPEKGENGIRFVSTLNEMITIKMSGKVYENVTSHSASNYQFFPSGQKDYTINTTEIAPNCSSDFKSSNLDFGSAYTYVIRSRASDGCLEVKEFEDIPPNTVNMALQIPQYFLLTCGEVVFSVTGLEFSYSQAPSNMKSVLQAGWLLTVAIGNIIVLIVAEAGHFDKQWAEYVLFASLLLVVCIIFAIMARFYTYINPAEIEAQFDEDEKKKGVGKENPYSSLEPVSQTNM
To be noted: in vivo, po.
Description: (§1) At the column temperature 35° C., 7% of acetonitrile (containing 0.1 M of acetic acid buffer (pH 3.0) and 0.01 M of 1-pentasulfonic acid sodium) was used as a mobile phase for separating elution at flow rate 0.9 ml/min. The detection was conducted at wavelength 240 nm, and CDX concentration in the plasma was determined.
(§2) In the formula, C, F, D, ka, ke, Vd and t represent CDX concentration in the plasma, absorptance, dosage, absorption rate constant, elimination rate constant, distribution volume, and time interval between the drug administration and blood collection, respectively.
(§3) In the formula, CL represents total clearance, Dose represents the dose of the drug, respectively.
(§4) With regard to 2.5 mg/kg CDX and 45 mg/kg CEX (▾), CEX was orally administered to the rats 30 minutes before the administration of CDX. Each pharmacokinetic parameter of the above-mentioned rats was calculated based on the change in the CDX concentration in the blood, with the formula (4), the formula (6), the formula (7), and the formula (8), and evaluated. Values shown in the figure and the table are the mean±S.E.M. of three to four independent experiments.
(§5) Then each pharmacokinetic parameter was calculated based on the change in the CDX concentration in the blood, with the formula (4), the formula (6), the formula (7), and the formula (8), and evaluated. […] Values shown in the figures are the mean±S.E.M. of two to four independent experiments, and values shown in the tables are the mean±S.E.M. of three independent experiments.
(§6) Values shown in the figure and the table are the mean±S.E.M. of two to four independent experiments.
(§7) VK-PRK was orally administered 30 minutes before CDX administration. […] Values shown in FIG. 10, FIG. 11 and Table 14 are the mean±S.E.M. of four independent experiments, and values shown in Table 13 are the mean±S.E.M. of three independent experiments.
(§8) Values shown in the figure are the mean±S.E.M. of three independent experiments, and values shown in the table are the mean±S.E.M. of four independent experiments.

For series [3], the target named is T2, PEPT 1. As to the kind of experiment: in vivo. To be noted: male, Sprague-Dawley, po; for Tmax: Tmax of CDX.
Description: as §1, §2, §3, §4, §5, §6, §7, §8
Series [4] is described as follows: CDX plasma pharmacokinetics after instant intravenous injection to rats with or without oral VK-PRX. To be noted: male, Sprague-Dawley, rat.
Description: as §1
In the formula, α, β and V1 represent gradient of distribution phase, gradient of elimination phase, and distribution volume of central compartment, respectively.
as §3
Series [5] concerns the target T1, hPEPT 1. The series can be described thus: Effect of preincubation with inhibitor on [^3H] Gly-Sar uptake by HeLa-hPEPT 1 cells. The format is cell-based. Conditions: FIG. 5. The procedure:
Gly-Sar uptake was examined by using HeLa cells stably expressing hPEPT 1 (HeLa-hPEPT 1). In the presence or absence of each inhibitor with concentrations shown in FIG. 5, preincubation was conducted for 30 minutes (open columns), and after the reaction solution was removed, the inhibitory effect on [^3H] Gly-Sar uptake was measured in a manner similar to that of Example 5 except that the uptake reaction was conducted in HBSS containing the same concentration of the inhibitor and [^3H] Gly-Sar (476 nM) (closed columns). In the figure, “Mock” indicates the uptake by HeLa-pcDNA 3 cells. […] Gly-Sar.

The results in this text go back to patent US7420029B2, “Tissue-specific transporter inhibitor” (Japan Science and Technology Agency, priority 2001, dated 2008).

As a reminder, the AUC(0-inf) is the area under the concentration-time curve extrapolated to infinity. The low end stands for less exposure, the high end for more exposure. For orientation: Tmax means the time from dosing to the highest level. `CC1=C(C(=O)O)N2C(=O)[C@@H](NC(=O)[C@H](N)c3ccc(O)cc3)[C@H]2SC1` [Cefadroxil, cefadroxil]: the “[^3H] Gly-Sar uptake % of control” value at hPEPT 1 [1] (inhibitor 10 mM) was 27.69 ± 1.44 % of control. The “dose dependence of AUC0−∞ and Cmax of CDX (in words)” value at PEPT 1 [2] is “saturation phenomenon”. On PEPT 1 [2] (male, Sprague-Dawley, 5 mg/kg), the “AUC0-∞ of CDX” value was 272 ± 9.27 µg·min/mL and the “ke (elimination rate constant) of CDX” value worked out at 0.54 ± 0.06 h⁻¹. The molecule further showed an AUC(0-inf) at PEPT 1 [3] (5 mg/kg, AUC0-∞ of CDX) of 2700 ng·h/mL. In addition, the Tmax on PEPT 1 [3] (5 mg/kg) was determined as 1.09 ± 0.08 h. In addition, the k el at PEPT 1 [3] (5 mg/kg, ke (elimination rate constant) of CDX) was 8.61e-05 s⁻¹. In addition, the Tmax on PEPT 1 [3] ([…]) is 0.95 h. Also, in series [4], the Vd is 0.162 ± 0.00899 L and the clearance came to 11 ± 0.41 mL/min.
On to `CC1=C(C(=O)O)N2C(=O)C(NC(=O)C(N)c3ccccc3)C2SC1` (centres unmarked) [Cephalexin, cephalexin], for which the “[^3H] Gly-Sar uptake % of control” value at hPEPT 1 [1] (inhibitor 10 mM) was 70.12 ± 1.45 % of control.
Still for that read-out and setting: as for `NCC(=O)O` [Gly], the figure is 97.71 ± 7.10 % of control.
`CC(C)[C@H](N)C(=O)N[C@@H](CCCCN)C(=O)O` [Val-Lys, valyl-lysine]: at hPEPT 1 [1] (inhibitor 3 mM), the “[^3H] Gly-Sar uptake % of control” value was 21.13 ± 1.80 % of control.
As for `OC[C@H]1O[C@@H]2O[C@H]3[C@H](O)[C@@H](O)[C@@H](O[C@H]4[C@H](O)[C@@H](O)[C@@H](O[C@H]5[C@H](O)[C@@H](O)[C@@H](O[C@H]6[C@H](O)[C@@H](O)[C@@H](O[C@H]7[C@H](O)[C@@H](O)[C@@H](O[C@H]1[C@H](O)[C@H]2O)O[C@@H]7CO)O[C@@H]6CO)O[C@@H]5CO)O[C@@H]4CO)O[C@@H]3CO` [α-CD, α-cyclodextrin], the “Inhibitory effect on [^3H] Gly-Sar uptake (in words)” value at hPEPT 1 [1] (HeLa-hPEPT 1, FIG. 4 and Table 8) is given as “significant inhibitory effect was not observed”; at hPEPT 1 [5], “no inhibitory effect”. The “[^3H] Gly-Sar uptake % of control” value at hPEPT 1 [1] (inhibitor 3 mM) was 125.87 ± 23.34 % of control.
For the molecule Gly-Sar, on hPEPT 1 [1] (inhibitor 10 mM), the “[^3H] Gly-Sar uptake % of control” value is recorded as 12.93 ± 2.45 % of control.
